# Test results: ChEMBL document CHEMBL5523710 (Eur J Med Chem, 2024)
# Calls of active or inactive are those of the source. No cut-off for these calls is given here.
# Tests used:
# [1] = test system: HAL-01; experiment: Cytotoxicity against human HAL-01 cells measured for 72 hrs by celltiter-glo assay; settings: HAL-01, 72 h
# [2] = test system: Jurkat; experiment: Cytotoxicity against human Jurkat cells measured for 72 hrs by celltiter-glo assay
# [3] = test system: HL-60; experiment: Cytotoxicity against human HL-60 cells measured for 72 hrs by celltiter-glo assay; settings: HL-60, 72 h
# [4] = test system: HL-60; experiment: Induction of apoptosis in human HL-60 cells assessed as increase in dead cells at 1 to 5 uM measured for 48 hrs by Annexin/PI staining based analysis; assay type: functional, cell-based; settings: dose 1-5 µM
# [5] = test system: HL-60; settings: Homo sapiens, dose 24.0 nM, time 24.0 hrs
# [6] = test system: HL-60; settings: Homo sapiens, dose 24.0 nM, time 24.0 hrs; remark: listed apart in the source
# [7] = test system: HL-60; experiment: Induction of apoptosis in human HL-60 cells assessed as increase in late apoptotic cells at 1 to 5 uM measured for 48 hrs by Annexin/PI staining based analysis; assay type: functional, cell-based; settings: dose 1-5 µM
# [8] = test system: HL-60; experiment: Induction of apoptosis in human HL-60 cells assessed as viable cells at 1 to 5 uM measured for 48 hrs by Annexin/PI staining based analysis; assay type: functional; settings: dose 1-5 µM
# [9] = test system: MOLM-13; experiment: Synergistic cytotoxicity against human MOLM-13 cells measured after 72 hrs in presence of decitabine by celltiter-glo assay; assay type: functional, cell-based
# [10] = biological target: Histone deacetylase 3/Nuclear receptor corepressor 2 (HDAC3/NCoR2) (Homo sapiens, UniProt O15379); experiment: Inhibition of C-terminal his-tagged human recombinant HDAC3 (1 to 428 residues)/N-terminal GST-tagged human recombinant NCOR2 (395 to 489 residues) expressed in Sf9 insect cells using ZMAL-(Z-Lys(Ac)-AMC as substrate measured for 90 mins by microplate reader analysis
# Histone deacetylase 3/Nuclear receptor corepressor 2 (HDAC3/NCoR2), sequence (O15379 whole entry, the tested form may be a part): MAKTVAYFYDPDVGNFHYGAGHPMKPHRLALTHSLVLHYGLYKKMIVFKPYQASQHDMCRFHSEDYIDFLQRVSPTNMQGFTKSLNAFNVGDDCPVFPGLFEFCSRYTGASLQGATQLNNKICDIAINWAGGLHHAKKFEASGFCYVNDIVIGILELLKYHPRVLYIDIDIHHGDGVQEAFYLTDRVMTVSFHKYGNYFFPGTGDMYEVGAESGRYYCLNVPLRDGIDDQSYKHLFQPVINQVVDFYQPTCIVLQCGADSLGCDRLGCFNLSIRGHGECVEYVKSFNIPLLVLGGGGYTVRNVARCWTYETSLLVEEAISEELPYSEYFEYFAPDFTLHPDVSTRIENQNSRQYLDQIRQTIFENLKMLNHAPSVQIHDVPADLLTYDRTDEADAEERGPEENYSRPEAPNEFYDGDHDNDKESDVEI
# Histone deacetylase 3/Nuclear receptor corepressor 2 (HDAC3/NCoR2), sequence (Q9Y618 whole entry, further chain, the tested form may be a part): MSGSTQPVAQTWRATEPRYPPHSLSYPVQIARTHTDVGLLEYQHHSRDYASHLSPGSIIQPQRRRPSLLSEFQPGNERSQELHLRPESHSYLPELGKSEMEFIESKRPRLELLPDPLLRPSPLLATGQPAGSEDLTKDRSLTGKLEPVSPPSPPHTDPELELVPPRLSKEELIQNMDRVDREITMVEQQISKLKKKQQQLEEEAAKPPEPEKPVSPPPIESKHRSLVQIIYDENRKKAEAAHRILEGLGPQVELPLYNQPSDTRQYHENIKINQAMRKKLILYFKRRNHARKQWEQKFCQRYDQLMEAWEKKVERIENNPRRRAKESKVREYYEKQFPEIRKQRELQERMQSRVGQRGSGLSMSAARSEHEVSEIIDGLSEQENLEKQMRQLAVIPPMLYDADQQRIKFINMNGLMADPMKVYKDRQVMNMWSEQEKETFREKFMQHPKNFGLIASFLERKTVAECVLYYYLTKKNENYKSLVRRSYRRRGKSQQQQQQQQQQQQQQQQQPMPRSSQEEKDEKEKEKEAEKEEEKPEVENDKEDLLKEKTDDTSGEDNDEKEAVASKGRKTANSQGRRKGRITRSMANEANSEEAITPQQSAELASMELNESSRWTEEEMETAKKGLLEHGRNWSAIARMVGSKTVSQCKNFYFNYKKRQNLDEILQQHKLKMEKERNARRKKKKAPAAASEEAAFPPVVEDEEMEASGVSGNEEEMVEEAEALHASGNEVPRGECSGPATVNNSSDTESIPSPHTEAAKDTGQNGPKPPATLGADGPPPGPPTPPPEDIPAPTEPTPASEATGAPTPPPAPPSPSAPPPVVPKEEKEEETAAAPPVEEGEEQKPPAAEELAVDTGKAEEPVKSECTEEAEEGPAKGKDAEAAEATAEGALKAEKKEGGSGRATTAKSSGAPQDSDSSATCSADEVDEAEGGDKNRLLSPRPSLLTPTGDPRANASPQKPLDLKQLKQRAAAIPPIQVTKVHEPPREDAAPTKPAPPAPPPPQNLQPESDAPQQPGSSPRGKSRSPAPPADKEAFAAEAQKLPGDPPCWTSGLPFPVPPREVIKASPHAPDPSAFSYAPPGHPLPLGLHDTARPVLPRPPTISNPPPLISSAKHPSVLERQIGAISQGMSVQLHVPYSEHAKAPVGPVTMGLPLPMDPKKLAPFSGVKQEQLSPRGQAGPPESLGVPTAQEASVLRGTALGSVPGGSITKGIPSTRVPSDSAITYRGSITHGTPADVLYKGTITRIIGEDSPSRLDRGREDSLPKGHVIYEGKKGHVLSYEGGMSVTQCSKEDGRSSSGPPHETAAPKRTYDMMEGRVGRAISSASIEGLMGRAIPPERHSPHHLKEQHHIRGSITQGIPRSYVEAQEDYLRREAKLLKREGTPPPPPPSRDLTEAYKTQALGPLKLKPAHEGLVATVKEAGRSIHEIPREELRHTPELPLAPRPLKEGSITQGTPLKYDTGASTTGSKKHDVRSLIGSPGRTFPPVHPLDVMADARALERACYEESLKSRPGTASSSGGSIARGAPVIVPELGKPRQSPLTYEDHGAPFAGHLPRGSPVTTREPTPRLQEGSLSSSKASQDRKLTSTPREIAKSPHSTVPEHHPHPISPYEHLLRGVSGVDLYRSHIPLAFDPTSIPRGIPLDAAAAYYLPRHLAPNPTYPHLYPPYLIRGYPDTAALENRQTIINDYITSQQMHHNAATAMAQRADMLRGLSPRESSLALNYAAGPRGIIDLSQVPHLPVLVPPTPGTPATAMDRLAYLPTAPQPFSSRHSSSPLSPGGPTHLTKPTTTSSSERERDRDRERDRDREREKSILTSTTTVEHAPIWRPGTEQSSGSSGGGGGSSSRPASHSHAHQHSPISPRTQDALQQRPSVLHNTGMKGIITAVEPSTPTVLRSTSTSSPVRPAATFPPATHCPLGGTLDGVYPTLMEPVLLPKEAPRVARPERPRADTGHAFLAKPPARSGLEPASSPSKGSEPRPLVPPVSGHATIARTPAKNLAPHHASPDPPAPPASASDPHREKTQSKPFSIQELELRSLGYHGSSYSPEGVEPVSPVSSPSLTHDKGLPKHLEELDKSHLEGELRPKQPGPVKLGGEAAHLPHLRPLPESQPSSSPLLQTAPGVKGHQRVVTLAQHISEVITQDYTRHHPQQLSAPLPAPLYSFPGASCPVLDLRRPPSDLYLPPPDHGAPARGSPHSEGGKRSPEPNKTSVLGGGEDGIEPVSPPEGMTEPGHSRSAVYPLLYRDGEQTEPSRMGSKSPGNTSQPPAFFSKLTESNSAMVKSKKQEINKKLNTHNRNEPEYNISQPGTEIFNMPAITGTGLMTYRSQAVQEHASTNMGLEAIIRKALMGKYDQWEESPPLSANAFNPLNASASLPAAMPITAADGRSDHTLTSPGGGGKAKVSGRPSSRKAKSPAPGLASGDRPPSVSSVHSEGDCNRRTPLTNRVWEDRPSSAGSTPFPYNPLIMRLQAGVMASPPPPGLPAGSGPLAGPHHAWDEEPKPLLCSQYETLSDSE
# [11] = biological target: Histone deacetylase 2 (Homo sapiens, UniProt Q92769); experiment: biochemical; assay type: cell-based, Sf9
# Histone deacetylase 2, sequence (Q92769 whole entry): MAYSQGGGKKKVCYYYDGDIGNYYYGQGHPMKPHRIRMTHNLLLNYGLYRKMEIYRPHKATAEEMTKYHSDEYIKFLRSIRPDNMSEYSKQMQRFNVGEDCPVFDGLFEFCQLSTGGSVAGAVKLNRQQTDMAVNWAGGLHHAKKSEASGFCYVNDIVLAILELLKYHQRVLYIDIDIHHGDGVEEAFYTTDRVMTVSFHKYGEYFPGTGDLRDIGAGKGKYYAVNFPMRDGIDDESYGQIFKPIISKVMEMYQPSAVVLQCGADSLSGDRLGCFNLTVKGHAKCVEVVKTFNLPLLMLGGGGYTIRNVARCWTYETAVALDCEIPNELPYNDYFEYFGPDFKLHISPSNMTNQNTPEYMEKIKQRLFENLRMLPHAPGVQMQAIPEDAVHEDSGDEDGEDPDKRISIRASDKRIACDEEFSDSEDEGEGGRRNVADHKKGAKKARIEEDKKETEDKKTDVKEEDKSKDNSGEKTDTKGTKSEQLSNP
# Description: Inhibition of C-terminal FLAG-tagged human recombinant HDAC2 (1 to 488 residues) expressed in Sf9 insect cells using ZMAL-(Z-Lys(Ac)-AMC as substrate measured for 90 mins by microplate reader analysis
# [12] = test system: HAL-01; experiment: Synergistic cytotoxicity against human HAL-01 cells measured after 72 hrs in presence of decitabine by celltiter-glo assay; assay type: functional, cell-based
# [13] = test system: HL-60; experiment: Induction of apoptosis in human HL-60 cells assessed as increase in early apoptotic cells at 1 to 5 uM measured for 48 hrs by Annexin/PI staining based analysis; assay type: functional, cell-based; settings: dose 1-5 µM
# [14] = test system: Jurkat; experiment: Synergistic cytotoxicity against human Jurkat cells measured after 72 hrs in presence of decitabine by celltiter-glo assay; assay type: functional, cell-based
# [15] = biological target: Histone deacetylase 1 (Homo sapiens, UniProt Q13547); experiment: Inhibition of C-terminal his/FLAG-tagged full length human recombinant HDAC1 (1 to 482 residues) expressed in Sf9 insect cells using ZMAL-(Z-Lys(Ac)-AMC as substrate measured for 90 mins by microplate reader analysis
# Histone deacetylase 1, sequence (Q13547 whole entry, the tested form may be a part): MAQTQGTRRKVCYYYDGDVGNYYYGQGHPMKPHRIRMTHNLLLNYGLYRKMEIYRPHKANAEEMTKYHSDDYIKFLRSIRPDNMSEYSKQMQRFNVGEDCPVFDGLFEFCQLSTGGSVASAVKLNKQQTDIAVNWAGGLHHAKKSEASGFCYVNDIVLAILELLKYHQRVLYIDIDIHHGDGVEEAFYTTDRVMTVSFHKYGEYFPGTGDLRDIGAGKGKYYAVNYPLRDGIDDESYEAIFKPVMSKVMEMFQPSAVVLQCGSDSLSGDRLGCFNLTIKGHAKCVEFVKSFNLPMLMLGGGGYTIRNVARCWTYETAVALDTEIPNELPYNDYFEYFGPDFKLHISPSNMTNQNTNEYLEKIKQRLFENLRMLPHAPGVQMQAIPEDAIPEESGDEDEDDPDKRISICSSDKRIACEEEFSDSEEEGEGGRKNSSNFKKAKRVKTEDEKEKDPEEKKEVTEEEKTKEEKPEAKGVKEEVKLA
Compound,IC50 [1],IC50 [2],IC50 [3],also measured
O=C(CN(C(=O)Cc1ccc(C(=O)NO)cc1)c1ccccc1C(F)(F)F)NC1CCCCC1,3.03 µM,4.58 µM,2.09 µM,–
O=C(CN(C(=O)Cc1ccc(C(=O)NO)cc1F)c1ccccc1)NC1CCCCC1,2.08 µM,2.42 µM,1.34 µM,–
Cc1ccc(N(CC(=O)NC2CCCCC2)C(=O)Cc2ccc(C(=O)NO)cc2)cc1,0.23 µM,0.41 µM,0.36 µM,Activity [4]: Active; inhibition [5]: 2.67%; inhibition [6]: Active; Activity [7]: Active; Activity [8]: 50%; Activity [9]: Active; IC50 [10]: 0.042 µM; IC50 [11]: 0.112 µM; Activity [12]: Active; Activity [13]: Active
CCCCNC(=O)CN(C(=O)Cc1ccc(C(=O)NO)cc1)c1ccccc1,3.12 µM,4.03 µM,2.68 µM,–
CCc1ccccc1N(CC(=O)NC1CCCCC1)C(=O)Cc1ccc(C(=O)NO)cc1,1.43 µM,2.28 µM,1.34 µM,–
Cc1ccccc1N(CC(=O)NC1CCCCC1)C(=O)Cc1ccc(C(=O)NO)cc1F,2.32 µM,3.08 µM,2.04 µM,Activity [14]: inactive; IC50 [10]: 0.52 µM; IC50 [11]: 0.787 µM; Activity [12]: inactive
CC(C)(C)NC(=O)CN(C(=O)Cc1ccc(C(=O)NO)cc1)c1ccccc1,4.91 µM,8.31 µM,5.99 µM,–
O=C(CN(C(=O)Cc1ccc(C(=O)NO)cc1)c1ccccc1)NCc1ccccc1,2.15 µM,2.29 µM,2.31 µM,IC50 [15]: 0.283 µM
Cc1ccccc1N(CC(=O)NC1CCCCC1)C(=O)Cc1ccc(C(=O)NO)cc1,1.51 µM,2.52 µM,2.31 µM,–
CCc1ccccc1N(CC(=O)NC1CCCCC1)C(=O)Cc1ccc(C(=O)NO)cc1F,1.44 µM,3.21 µM,1.51 µM,–
O=C(CN(C(=O)Cc1ccc(C(=O)NO)cc1)c1ccccc1)NC1CCCCC1,2.02 µM,2.54 µM,1.83 µM,–
Cc1cccc(N(CC(=O)NC2CCCCC2)C(=O)Cc2ccc(C(=O)NO)cc2)c1,1.89 µM,2.59 µM,1.75 µM,–
O=C(CN(C(=O)Cc1ccc(C(=O)NO)cc1F)c1ccccc1C(F)(F)F)NC1CCCCC1,1.79 µM,2.28 µM,1.61 µM,–
